Reference: US8461299B2, “Peptide capable of binding to immunoglobulin” (MMT Co., Ltd., priority 2007, dated 2013)

Key:
[1] = tested on: binding between human C1q protein and alkaline phosphatase (ALP)-labeled human immunoglobulin (IgG); experiment: Inhibition of the binding between an immunoglobulin and C1q (C1q spotted on nitrocellulose membrane, ALP-labeled IgG detection); details: peptide 500 μg/ml; 400 ng human C1q per spot; ALP-labeled human IgG diluted 1000-fold; room temperature, one hour
Text: It was investigated whether or not the 9 residue-peptide CKVPGLYYF (SEQ ID NO: 2) considered to be necessary for the binding between C1q and an immunoglobulin (IgG) inhibits the binding between C1q and an immunoglobulin. Peptide (R2) having the amino acid sequence of SEQ ID NO: 2, peptide (R1) having a shorter amino acid sequence than this peptide, PGLYYF (SEQ ID NO: 1), as well as peptide (R3) having the amino acid sequence SGKFTCKVPGLYYFT (SEQ ID NO: 3), peptide (R4) having the amino acid sequence FTCKVPGLYYFTYHA (SEQ ID NO: 4), peptide (R5) having the amino acid sequence STGKFTCKVPGLYYF (SEQ ID NO: 5), and peptide (R6) having the amino acid sequence CKVPGLYYFVYHASH (SEQ ID NO: 7), which contain the amino acid sequence indicated by SEQ ID NO: 2, were prepared by outsourcing to GL Biochem (Shanghai). Each peptide was dissolved in dimethylsulfoxide so as to reach a concentration of 10 mg/ml and stored.
Human C1q protein (manufactured by Carbiochem) was dissolved in 10 mM HEPES, 300 mM NaCl and 40% glycerol (pH 7.2) to prepare a 200 μg/ml human C1q protein solution.
The human C1q protein solution was spotted at 2 μl (400 ng) each onto a 5 mm×15 mm size nitrocellulose membrane (Hybond C; manufactured by Amersham), which was air-dried at room temperature for approximately one hour. The nitrocellulose membrane was soaked in TBS, incubated for 5 minutes, and blocked at room temperature for one hour using TBS (20 mM Tris-HCl pH 7.5, 150 mM NaCl) containing 5% blocking agent (Amersham ECL blocking reagent; manufactured by GE Healthcare). After a slight wash in TBS, the membrane was soaked in 20 μl of a mixed solution of alkaline phosphatase (ALP)-labeled human immunoglobulin (IgG) (manufactured by BECKMAN COULTER) diluted 1000-fold in TBS and each peptide so as to reach a concentration of 500 μg/ml, and let it react at room temperature for one hour. After a slight wash in TTBS solution (TBS added with Tween 20 to a final concentration of 0.05%), the membrane was washed in the same solution for 10 minutes, shaking three times.
After the nitrocellulose membrane was washed slightly in ALP coloring buffer (Tris-HCl containing 100 mM NaCl, 5 mM MgCl2, pH 9.5), it was soaked in 30 μl ALP coloring buffer containing BCIP/NBT solution (manufactured by Promega), and colored at room temperature for 10 minutes. Upon obtaining a staining image, the nitrocellulose membrane was soaked in a sufficient amount of distilled water to wash away the coloring buffer. After washing the nitrocellulose membrane was air-dried and the staining image was captured using Multi Gauge (FUJIFILM). […]

[2] = tested on: Type III allergic (Arthus) reaction-induced rat; experiment: Type III allergic (Arthus) reaction model, Evans blue dye leakage; assay type: in vivo
Procedure: The test for peptide R1, R2 and R5 using 64 male rats of the Slc:Wistar strain, which were 7 weeks old was carried out in twice, i.e. for each administration method (intraperitoneal administration and tail vein administration). Acclimation was carried out by giving normal solid chow CRF-1 for 9 days or longer. The day prior to administration, the dorsal hair of the animal was shaved, and on the administration day, a solution of OVA+Evans blue dye mix was administered into the tail vein. Each peptide solution was administered, 30 minutes after administration of a solution of OVA+Evans blue dye mix if administered intraperitoneally or 50 minutes after if administered into the tail vein, respectively. Regarding intracutaneous administration of anti-OVA solution, the solution was intradermally administered to the dorsal region of the animal at a dose of 0.1 ml/site, 30 minutes after administration of the test substance in case of intraperitoneal administration or 10 minutes after in case of intravenous administration, to induce locally an Arthus reaction. Four hours after the induction, the animals were euthanized, the blood was removed thoroughly, and then the dorsal skin was removed. The Arthus reaction site on the removed skin was punched out, and the Evans blue dye was extracted from this skin overnight. The amount of dye leaked was quantified by measuring the absorbance for Evans blue dye with a spectrophotometer and using a calibration curve (note that, regarding experimental methods used in Example 4, reference should be made to H. Okamoto, Y. Iwahisa and M. Terasawa: Suppression of the Arthus reaction by Y-24180, a potent and specific antagonist of platelet-activating factor. Agents Actions, 35: 149-158 (1992)).
The predetermined weighed amounts of each peptide (peptides R1, R2 and R5) were dissolved in physiological saline respectively to obtain a 20 mg/ml solution. A 2 mg/ml solution was prepared by diluting 10-fold a 20 mg/mL solutions with physiological saline. 5 mg/ml solutions were prepared by dissolving each peptide in predetermined weighed amounts in physiological saline to obtain preparation solutions.
A solution of OVA+Evans blue dye mix was administered into the tail vein at 2 ml/kg. Each peptide solution was administered, 30 minutes after administration of the solution of OVA+Evans blue dye mix if administered intraperitoneally or 50 minutes after if administered into the tail vein, respectively. Regarding intracutaneous administration of anti-OVA solution, the solution was intradermally administered to the dorsal region of the animal at a dose of 0.1 ml/site, 30 minutes after administration of the test substance in case of intraperitoneal administration or 10 minutes after in case of intravenous administration, to induce locally an Arthus reaction. Intracutaneous administration was such that there were two PBS sites and two ant-OVA solution sites per animal. Four hours after the induction, the animals were euthanized by decapitation under ether anesthesia, the blood was removed thoroughly, and then the dorsal skin was removed. […]
The skin strip that was punched out with a punch was slit at several locations, soaked in 2 ml of dye extraction solution, and shaken and agitated for 10 minutes. […] The amount of dye leaked was calculated from the dye amount calibration curve.
The group mean values (mean)±standard deviation (SD) were calculated for the body weight measurement values and the amounts of dye leaked. […]

[3] = tested on: monoclonal antibody cocktail-induced arthritis mice; experiment: Arthritis inhibitory action on an arthritis-induced mouse-2 (clinical score, general state, body weight); assay type: in vivo; details: 10 mg/kg intraperitoneally twice daily from day 0 for 14 days
Procedure: The arthritis inhibitory action of the peptides indicated in Example 2 as R1, R2 and R5 was examined using monoclonal antibody cocktail-induced arthritis mice. An arthritis-inducing monoclonal antibody cocktail was intravenously administered at 2 mg/individual, and three days later, LPS was intraperitoneally administered at 50 μg/individual to the mice to induce arthritis. For each peptide, from the day the arthritis-inducing monoclonal antibody cocktail was administered (day 0), continuous administration was carried out at 10 mg/kg each, twice daily, for 14 days, and the arthritis inhibitory action was examined by clinical scoring. Note that the experiments were carried out by similar methods to Example 3 (1).
Based on the animal body weight, the required amount of each peptide was calculated. A solution was prepared with a 0.5% methyl cellulose solution so as to reach a concentration of 1 mg/ml, and was stored refrigerated.
With the day the arthritis-inducing monoclonal antibody cocktail was administered as day 0, the animal's body weight was measured on day 0, 3, 6, 9, 12 and 14 during the test period. General state observation was carried out daily.
The body weight was measured on the day prior to starting administration and randomly assigned with a grouping software so that the average body weight value of each group was approximately the equal. To twenty 7 week-old mice, an arthritis-inducing monoclonal antibody cocktail were intravenously administered at 2 mg/individual on day 0, and LPS was intraperitoneally administered at 50 μg/individual on day 3.
Each peptide solution was intraperitoneally administered twice daily, in the morning and in the afternoon, from day 0. As a control, 0.5% methyl cellulose solution was intraperitoneally administered twice daily from day 0. For administration, a syringe needle (26G, Terumo) and a syringe barrel (1.0 ml capacity, Terumo) were used. The dosage was 10 ml/kg. […]

[4] = tested on: monoclonal antibody cocktail-induced arthritis mice (BALB/c Cr Slc (SPF)); experiment: Arthritis inhibitory action on an arthritis-induced mouse-1 (clinical score); assay type: in vivo
Procedure: Using monoclonal antibody cocktail-induced arthritis mice (BALB/c Cr Slc (SPF)), the arthritis inhibitory action of the peptide indicated as R5 in Example 2 was examined. Arthritis was induced by intravenous administration of 2 mg/individual of an arthritis-inducing monoclonal antibody cocktail, followed by intraperitoneal administration of 50 μg/individual of Lipopolysaccharide (LPS) three days later. From the day following LPS administration (day 4) until day 14, 10 mg/kg of peptide. R5 was intraperitoneally administered once daily or twice daily. The positive control agent methotrexate was orally administered once daily at 0.1 mg/kg from day 4. The clinical score of the extremities was measured on even days from day 0 to day 14. Under anesthesia, blood was removed with heparin-containing physiological saline, ice-cold 4% paraformaldehyde solution was continuously injected to perfusion-fix the whole body. After perfusion-fixation subsequent, both hind limbs knee joints (the center of the femur and the center of the tibia were cut; skin and muscles were removed) and heel joints (from the center of the tibia to the toe tips) were excised and further immersion-fixed with 4% paraformaldehyde solution overnight (4° C.). Thereafter, both knee and heel joints were transferred to 50 mM PBS (4° C.), then soft x-ray radiography of the heel articulations were taken from two directions (internal side direction and upper side direction).
Based on the animal body weight, the required amount was calculated for the peptide. A peptide solution was prepared with a 0.5% methyl cellulose solution so as to reach a concentration of 1 mg/ml, and the prepared peptide solution was stored refrigerated. […]
With the day the arthritis-inducing monoclonal antibody cocktail was administered as day 0, the animal's body weight was measured on day 0, 3, 6, 9, 12 and 14 during the test period. […]

[5] = intraperitoneal administration, 10 mg/kg or 100 mg/kg
[6] = tail vein administration, 10 mg/kg

| Substance | inhibition of the binding between C1q and an immunoglobulin (IgG) [1] | inhibitory action on immune-complex disease (amount of dye leaked) [2, 5] | arthritis inhibitory action (clinical score) [3] | arthritis inhibition (clinical score) ([4]; 10 mg/kg intraperitoneally once daily or twice daily, day 4 until day 14) | difference in effectiveness between once daily administration and twice daily administration ([4]; 10 mg/kg intraperitoneally, day 4 until day 14) | level of arthritis inhibition compared with methotrexate ([4]; peptide 10 mg/kg intraperitoneally, methotrexate 0.1 mg/kg orally once daily from day 4) | inhibitory action on immune-complex disease (amount of dye leaked) [2, 6] |
| --- | --- | --- | --- | --- | --- | --- | --- |
| STAKFTCKVPGLYYF (Immunoglobulin binding peptide) [R11] | inhibit |  |  |  |  |  |  |
| STGKFTCKVPGLYYF (Immunoglobulin binding peptide) [R5] |  | clear and sufficient inhibitory action | Arthritis inhibitory action was observed | an effect on arthritis inhibition was observed | no significant difference | higher than that of methotrexate |  |
| CKAPGLYYF (Immunoglobulin binding peptide) [R10] | inhibit |  |  |  |  |  |  |

The next lines start with results.

| inhibition of the binding between C1q and an immunoglobulin (IgG) [1] | Substance | inhibitory action on immune-complex disease (amount of dye leaked) [2, 5] | arthritis inhibitory action (clinical score) [3] | arthritis inhibition (clinical score) ([4]; 10 mg/kg intraperitoneally once daily or twice daily, day 4 until day 14) | difference in effectiveness between once daily administration and twice daily administration ([4]; 10 mg/kg intraperitoneally, day 4 until day 14) | level of arthritis inhibition compared with methotrexate ([4]; peptide 10 mg/kg intraperitoneally, methotrexate 0.1 mg/kg orally once daily from day 4) | inhibitory action on immune-complex disease (amount of dye leaked) [2, 6] |
| --- | --- | --- | --- | --- | --- | --- | --- |
| inhibited | PGLYYF (Immunoglobulin binding peptide) [R1] | clear and sufficient inhibitory action | Arthritis inhibitory action was observed |  |  |  | clear and sufficient inhibitory action |
| inhibited | CKVPGLYYF (Immunoglobulin binding peptide) [R2] | clear and sufficient inhibitory action | Arthritis inhibitory action was observed |  |  |  | clear and sufficient inhibitory action |
